Data from patent US9708316B2 (BRISTOL-MYERS SQUIBB COMPANY, priority 2014, dated 2017).
Read-outs that look alike come from different tables or passages of the source.

Key:
[1] = target: HIS-TGFβR2 WT (Homo sapiens, UniProt P37173); assay: HTRF probe-displacement assay, HIS-TGFβR2 WT; assay type: binding
[2] = target: T1, HIS-TGFβR1 T204D (Homo sapiens, UniProt P36897, T204D); assay: HTRF probe-displacement assay, HIS-TGFβR1 T204D; assay type: binding
T1 sequence (P36897 34-503 T204D): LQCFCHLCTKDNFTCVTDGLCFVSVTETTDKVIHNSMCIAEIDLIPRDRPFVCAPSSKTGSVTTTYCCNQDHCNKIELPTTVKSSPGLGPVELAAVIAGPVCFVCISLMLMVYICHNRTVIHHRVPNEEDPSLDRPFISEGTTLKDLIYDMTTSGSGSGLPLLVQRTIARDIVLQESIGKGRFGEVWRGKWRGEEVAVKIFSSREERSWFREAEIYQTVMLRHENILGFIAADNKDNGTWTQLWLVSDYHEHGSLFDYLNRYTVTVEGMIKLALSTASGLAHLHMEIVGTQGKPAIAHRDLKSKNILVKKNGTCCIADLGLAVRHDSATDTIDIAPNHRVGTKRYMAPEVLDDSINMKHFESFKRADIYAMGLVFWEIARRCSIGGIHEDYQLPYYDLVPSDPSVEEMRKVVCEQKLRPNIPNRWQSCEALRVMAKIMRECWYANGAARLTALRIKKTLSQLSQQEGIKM

Chain of HIS-TGFβR2 WT (P37173 23-567): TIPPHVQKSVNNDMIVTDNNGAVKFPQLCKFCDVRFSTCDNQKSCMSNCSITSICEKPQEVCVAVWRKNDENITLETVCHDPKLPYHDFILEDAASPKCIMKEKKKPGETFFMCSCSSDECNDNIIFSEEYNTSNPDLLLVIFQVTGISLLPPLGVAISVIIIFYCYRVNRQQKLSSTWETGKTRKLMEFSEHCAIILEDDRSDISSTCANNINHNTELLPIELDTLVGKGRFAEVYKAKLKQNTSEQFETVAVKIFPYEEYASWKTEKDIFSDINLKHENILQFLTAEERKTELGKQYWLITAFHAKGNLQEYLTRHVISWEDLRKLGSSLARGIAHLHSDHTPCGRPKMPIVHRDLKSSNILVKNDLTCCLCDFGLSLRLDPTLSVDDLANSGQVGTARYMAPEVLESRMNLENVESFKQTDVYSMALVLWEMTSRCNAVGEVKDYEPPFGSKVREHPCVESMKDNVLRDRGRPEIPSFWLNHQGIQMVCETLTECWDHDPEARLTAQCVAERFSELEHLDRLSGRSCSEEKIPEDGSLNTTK

SMILES	IC50 [1]	IC50 ([2]; read-out: TGFβR1 (μM) IC50)	IC50 ([2]; 1 nM HIS-TGFβR1 T204D, labeled probe at Kd, 1 hour room temperature, eleven concentrations, read-out: TGFβR1 (μM) IC50)	IC50 [2]
CC(=O)Nc1cc(-c2[nH]c3cccnc3c2-c2ccc3[nH]ccc3c2)ccn1 [Example 20, N-{4-[3-(1H-Indol-5-yl)-1H-pyrrolo[3,2-b]pyridin-2-yl]pyridin-2-yl}acetamide]	1.69 µM	0.005 µM	–	–
CCC(OC(N)=O)c1ccnc2c(-c3ccc(OC)nc3)c(-c3ccnc(NC(C)=O)c3)[nH]c12 (centres unmarked) [Example 302, 1-(2-(2-Acetamidopyridin-4-yl)-3-(6-methoxypyridin-3-yl)-1H-pyrrolo[3,2-b]pyridin-7-yl)propyl carbamate]	0.723 µM	0.001 µM	–	–
COc1ccc(-c2c(-c3ccnc(NC(=O)C4CC4)c3)[nH]c3cccnc23)cn1 [Example 53, N-{4-[3-(6-Methoxypyridin-3-yl)-1H-pyrrolo[3,2-b]pyridin-2-yl]pyridin-2-yl}cyclopropanecarboxamide]	0.005 µM	0.002 µM	–	–
CC(=O)Nc1cc(-c2[nH]c3cc(Cl)cnc3c2-c2cccc(NCCO)n2)ccn1 [Example 68, N-[4-(6-Chloro-3-{6-[(2-hydroxyethyl)amino]pyridin-2-yl}-1H-pyrrolo[3,2-b]pyridin-2-yl)pyridin-2-yl]acetamide]	> 15 µM	0.96 µM	–	–
COc1ccc(-c2c(-c3ccnc(N)c3)[nH]c3cc(Cl)cnc23)cn1 [Example 289, 4-(6-Chloro-3-(6-methoxypyridin-3-yl)-1H-pyrrolo[3,2-b]pyridin-2-yl)pyridin-2-amine]	0.794 µM	0.002 µM	–	–
CNCc1ccnc2c(-c3cccc(C(F)F)n3)c(-c3ccnc(NC(C)=O)c3)[nH]c12 [Example 151, N-(4-{3-[6-(Difluoromethyl)pyridin-2-yl]-7-[(methylamino)methyl]-1H-pyrrolo[3,2-b]pyridin-2-yl}pyridin-2-yl)acetamide]	> 15 µM	0.01 µM	–	–
COc1nc(-c2c(-c3ccnc(NC(C)=O)c3)[nH]c3cccnc23)cs1 [Example 201, N-(4-(3-(2-Methoxythiazol-4-yl)-1H-pyrrolo[3,2-b]pyridin-2-yl)pyridin-2-yl)acetamide]	1.53 µM	0.0275 µM	–	–
CC(=O)Nc1cc(-c2[nH]c3cc(Cl)cnc3c2-c2nc(C)ns2)ccn1 [Example 179, N-(4-(6-chloro-3-(3-methyl-1,2,4-thiadiazol-5-yl)-1H-pyrrolo[3,2-b]pyrdin-2-yl)pyridin-2-yl)acetamide]	> 15 µM	0.058 µM	–	–
COc1ccc(-c2c(-c3ccnc(NC(=O)CN4CCOCC4)c3)[nH]c3cccnc23)cn1 [Example 286, N-(4-(3-(6-Methoxypyridin-3-yl)-1H-pyrrolo[3,2-b]pyridin-2-yl)pyridin-2-yl)-2-morpholinoacetamide]	0.253 µM	0.001 µM	–	–
COc1ccc(-c2c(-c3ccnc(NC(C)=O)c3)[nH]c3c(C(=O)NC(CO)CO)cc(Cl)nc23)cn1 [Example 58, 5-Chloro-N-(1,3-dihydroxypropan-2-yl)-2-(2-acetamidopyridin-4-yl)-3-(6-methoxypyridin-3-yl)-1H-pyrrolo[3,2-b]pyridine-7-carboxamide]	9.23 µM	0.017 µM	–	–
CC(=O)Nc1cc(-c2[nH]c3cc(Cl)cnc3c2-c2cccc(OC(C)C)n2)ccn1 [Example 255, N-(4-(6-Chloro-3-(6-isopropoxypyridin-2-yl)-1H-pyrrolo[3,2-b]pyridin-2-yl)pyridin-2-yl)acetamide]	> 15 µM	0.433 µM	–	–
CC(=O)Nc1cc(-c2[nH]c3cc(Cl)cnc3c2-c2ncc(Cl)s2)ccn1 [Example 168, N-(4-(6-Chloro-3-(5-chlorothiazol-2-yl)-1H-pyrrolo[3,2-b]pyridin-2-yl)pyridin-2-yl)acetamide]	1.19 µM	0.0138 µM	–	–
COc1ccc(-c2c(-c3ccnc(NC(C)=O)c3)[nH]c3c(OC)ccnc23)nc1 [Example 266, N-(4-(7-Methoxy-3-(5-methoxypyridin-2-yl)-1H-pyrrolo[3,2-b]pyridin-2-yl)pyridin-2-yl)acetamide]	> 15 µM	0.005 µM	–	–
CC(=O)Nc1cc(-c2[nH]c3c(C(C)O)ccnc3c2-c2nc(C(F)(F)F)cs2)ccn1 (centres unmarked) [Example 231, N-(4-(7-(1-Hydroxyethyl)-3-(4-(trifluoromethyl)thiazol-2-yl)-1H-pyrrolo[3,2-b]pyridin-2-yl)pyridin-2-yl)acetamide]	9.11 µM	0.001 µM	–	–

More lines, now with the values ahead:

IC50 [1]	IC50 ([2]; read-out: TGFβR1 (μM) IC50)	IC50 ([2]; 1 nM HIS-TGFβR1 T204D, labeled probe at Kd, 1 hour room temperature, eleven concentrations, read-out: TGFβR1 (μM) IC50)	IC50 [2]	SMILES
4.12 µM	0.023 µM	–	–	CC(=O)Nc1cc(-c2[nH]c3c(CO)ccnc3c2-c2ccc(C)nc2)ccn1 [Example 280, N-(4-(7-(Hydroxymethyl)-3-(6-methylpyridin-3-yl)-1H-pyrrolo[3,2-b]pyridin-2-yl)pyridin-2-yl)acetamide]
> 15 µM	0.002 µM	–	–	CC(=O)Nc1cc(-c2[nH]c3cccnc3c2-c2ccc(C(F)(F)F)nc2)ccn1 [Example 13, N-(4-{3-[6-(Trifluoromethyl)pyridin-3-yl]-1H-pyrrolo[3,2-b]pyridin-2-yl}pyridin-2-yl)acetamide]
8.66 µM	0.004 µM	–	–	CC(=O)Nc1cc(-c2[nH]c3c(C4CCCCO4)ccnc3c2-c2cccc(C(F)F)n2)ccn1 (centres unmarked) [Example 134, N-(4-{3-[6-(Difluoromethyl)pyridin-2-yl]-7-(oxan-2-yl)-1H-pyrrolo[3,2-b]pyridin-2-yl}pyridin-2-yl)acetamide]
1.51 µM	0.001 µM	–	–	COc1ccc(-c2c(-c3ccnc(NC(=O)CN4CCN(C)CC4)c3)[nH]c3cc(Cl)cnc23)cn1 [Example 292, N-(4-(6-chloro-3-(6-methoxypyridin-3-yl)-1H-pyrrolo[3,2-b]pyridin-2-yl)pyridin-2-yl)-2-(4-methylpiperazin-1-yl)acetamide]
0.043 µM	0.0008 µM	–	–	CC(=O)Nc1cc(-c2[nH]c3cc(C)cnc3c2-c2nc(C)cs2)ccn1 [Example 223, N-(4-(6-Methyl-3-(4-methylthiazol-2-yl)-1H-pyrrolo[3,2-b]pyridin-2-yl)pyridin-2-yl)acetamide]
0.176 µM	0.001 µM	–	–	COc1ccc(-c2c(-c3ccnc(NC(=O)CN4CCN(CCO)CC4)c3)[nH]c3cc(Cl)cnc23)cn1 [Example 235, N-(4-(6-Chloro-3-(6-methoxypyridin-3-yl)-1H-pyrrolo[3,2-b]pyridin-2-yl)pyridin-2-yl)-2-(4-(2-hydroxyethyl)piperazin-1-yl)acetamide]
0.13 µM	0.002 µM	–	–	CC(=O)Nc1cc(-c2[nH]c3cc(Cl)cnc3c2-c2cccc(Cl)n2)ccn1 [Example 41, N-{4-[3-(6-Chloropyridin-2-yl)-6-chloro-1H-pyrrolo[3,2-b]pyridin-2-yl]pyridin-2-yl}acetamide]
0.352 µM	0.002 µM	–	–	COc1ccc(-c2c(-c3ccnc(NC(C)=O)c3)[nH]c3c(Cl)ccnc23)cn1 [Example 271, N-(4-(7-Chloro-3-(6-methoxypyridin-3-yl)-1H-pyrrolo[3,2-b]pyridin-2-yl)pyridin-2-yl)acetamide]
> 15 µM	0.111 µM	–	–	COc1ccc(-c2c(-c3ccnc(NC(C)=O)c3)[nH]c3cccnc23)nc1C [Example 237, N-(4-(3-(5-Methoxy-6-methylpyridin-2-yl)-1H-pyrrolo[3,2-b]pyridin-2-yl)pyridin-2-yl)acetamide]
11.3 µM	0.003 µM	–	–	COc1cnc2c(-c3cccc(C(F)F)n3)c(-c3ccnc(NC(=O)CN(C)C)c3)[nH]c2c1 [Example 117, N-(4-{3-[6-(Difluoromethyl)pyridin-2-yl]-6-methoxy-1H-pyrrolo[3,2-b]pyridin-2-yl}pyridin-2-yl)-2-(dimethylamino)acetamide]
0.75 µM	0.002 µM	–	–	CC(=O)Nc1cc(-c2[nH]c3c([C@H](C)O)ccnc3c2-c2cccc(C(F)F)n2)ccn1 (single isomer, unassigned) [Example 147]
–	–	0.003 µM	–	[2H]C([2H])([2H])Oc1ccc(-c2c(-c3ccnc(NC(C)=O)c3)[nH]c3cc(F)cnc23)nc1 [Example 106, N-(4-(6-Fluoro-3-(5-(methoxy-d3)pyridin-2-yl)-1H-pyrrolo[3,2-b]pyridin-2-yl)pyridin-2-yl)acetamide]
0.361 µM	0.001 µM	–	–	CC(=O)Nc1cc(-c2[nH]c3c(C(O)C(C)C)ccnc3c2-c2cccc(C(F)F)n2)ccn1 (centres unmarked) [Example 144, N-(4-{3-[6-(Difluoromethyl)pyridin-2-yl]-7-(1-hydroxy-2-methylpropyl)-1H-pyrrolo[3,2-b]pyridin-2-yl}pyridin-2-yl)acetamide]
0.087 µM	0.002 µM	–	–	CC(=O)Nc1cc(-c2[nH]c3cccnc3c2-c2cccc(F)n2)ccn1 [Example 16, N-{4-[3-(6-Fluoropyridin-2-yl)-1H-pyrrolo[3,2-b]pyridin-2-yl]pyridin-2-yl}acetamide]
4.09 µM	0.002 µM	–	–	CC(=O)Nc1cc(-c2[nH]c3c(CN4CC(F)(F)C4)ccnc3c2-c2cccc(C(F)F)n2)ccn1 [Example 152, N-(4-{7-[(3,3-Difluoroazetidin-1-yl)methyl]-3-[6-(difluoromethyl)pyridin-2-yl]-1H-pyrrolo[3,2-b]pyridin-2-yl}pyridin-2-yl)acetamide]
3.72 µM	–	–	0.002 µM	CC(=O)Nc1cc(-c2[nH]c3cc(Cl)cnc3c2-c2cccc(C)n2)ccn1 [Example 66, N-{4-[6-Chloro-3-(6-methylpyridin-2-yl)-1H-pyrrolo[3,2-b]pyridin-2-yl]pyridin-2-yl}acetamide]
